Results: patent US11452713B2, “Chemotherapeutic methods for treating low-proliferative disseminated tumor cells” (University of Florida Research Foundation, Incorporated, priority 2016, dated 2022)
Entries after “also recorded” stand apart in the source; their conditions may differ.

Experiments:
[1] = cited from earlier work
BM DTCs [2] = experiment: BM DTC count and lpDTC fraction in ErbB2-induced mouse breast cancer model after single-agent treatment; format: in vivo; conditions: for BM DTC count: FIG. 8A, p<0.05; for fraction of BM lpDTCs (TWIST1+; p-p38+; BrdU- DTCs over total BM DTCs): FIG. 8B
Text: FIGS. 8A-8B show the dormant TWIST1^+; p-p38; BrdU-DTCs resistance to cytotoxic drugs in ErbB2-induced mouse breast cancer model.
Of these TWIST1-positive BM DTCs, nearly 80% (23/29) expressed activated p38 (p-p38) and 70% (20/29) were also growth arrested as measured by a lack of BrdU incorporation (FIG. 7C-D). In contrast, of the TWIST1-negative DTCs, 94% (67/71) lacked activated p38 and 77% (55/71) were also actively proliferating. Therefore TWIST1-positive; p-p38-positive; BrDU-negative cells represent the fraction of true lpDTCs in these models. To confirm that these BM lpDTCs were resistant to cytotoxic agents and that p38 plays a critical role in their growth arrest, these mice were treated with either SB203085 (10 μmol/kg IP BID×7 days) or the cytotoxic drug paclitaxel (Taxol, 10 mg/kg IP once) and measured the number of all BM DTCs and the fraction of lpDTCs (ratio of TWIST1+; p-p38+; BrdU-DTCs over total BM DTCs). […] ErbB2- or PyMT-induced breast tumor mice were untreated or treated with either Taxol alone or a combination of SB203085 plus Taxol with SB203085 starting 72 hrs prior to and ending 72 hrs after each dose of Taxol (FIG. 9). Three 21-day cycles of chemotherapy were given. Total BM DTCs were determined prior to and 1 week after treatment ended.

[3] = system: TWIST1-overexpressing cells; experiment: Reversal of TWIST1-dependent growth arrest by p38 inhibition; format: cell-based; conditions: FIG. 4A
Text: TWIST1 was overexpressed so as to achieve maximal TWIST1 effect, thereby avoiding the confounding problem of added TGFβ1. TWIST1 overexpression alone generated vigorous TGFβ1-independent EMT and led to 2-3 fold lower ERK:p38 signaling ratio (i.e. high p38 activity) compared to the empty vector (FIG. 3D).
(§1) SNAIL1 represses TWIST1 during EMT initiation. TWIST1 maintains EMT by creating a low ERK:p38 signaling ratio (high p38 activity). Thus high SNAIL1 levels in primary tumors would induce EMT while high TWIST1 levels would maintain EMT in metastatic cells and possibly contribute to lpDTCs in metastatic sites (FIG. 1).

BM DTCs [4] = experiment: p38 inhibitor plus Taxol in PyMT-induced breast tumor mice: total BM DTCs and overall survival; format: in vivo, mouse; conditions: MMTV-PyMT mice; SB203085 72 hrs prior to until 72 hrs after each Taxol dose, 3 cycles; vs Taxol alone and untreated
Protocol: FIGS. 9A-9B show the p38 inhibition increase the DTCs' sensitivity to cytotoxic chemotherapy. DTCs-bearing PyMT-induced breast tumor mice were either untreated or treated with Taxol alone (10 mg/kg) or with SB203085 (10 μg/kg) followed by Taxol. Taxol was given IP every 3 weeks for 3 cycles. SB203085 was given IP BID starting 72 hours prior to Taxol and continuing until 72 hours after Taxol infusion. Ten mice were included in each reference group. FIGS. 9A and B show the overall survival (A) and total BM DTCs (B) before and after chemo were determined.
Of these TWIST1-positive BM DTCs, nearly 80% (23/29) expressed activated p38 (p-p38) and 70% (20/29) were also growth arrested as measured by a lack of BrdU incorporation (FIG. 7C-D). In contrast, of the TWIST1-negative DTCs, 94% (67/71) lacked activated p38 and 77% (55/71) were also actively proliferating. […] To confirm that these BM lpDTCs were resistant to cytotoxic agents and that p38 plays a critical role in their growth arrest, these mice were treated with either SB203085 (10 μmol/kg IP BID×7 days) or the cytotoxic drug paclitaxel (Taxol, 10 mg/kg IP once) and measured the number of all BM DTCs and the fraction of lpDTCs (ratio of TWIST1+; p-p38+; BrdU-DTCs over total BM DTCs). […] Total BM DTCs were determined prior to and 1 week after treatment ended. […]

TWIST1-positive cells = experiment: Sensitivity of TWIST1-positive cells to Taxol with or without SB203580 pretreatment; format: cell-based
Text: as §1

For CNC(=O)c1ccc(C)c(-n2c(C)cc(OCc3ccc(F)cc3F)c(Br)c2=O)c1 [PH797804, 3-(4-(2,4-difluorobenzyloxy)-3-bromo-6-methyl-2-oxopyridin-1(2H)-yl)-N,4-dimethylbenzamide], the tolerability ([1]; 4 dose levels 0.5, 3, 6 and 10 mg PO qday) is listed as “well tolerated”, the “most common side effect: skin rash” value ([1]; phase 2 trial in emphysema) is listed as roughly 1% and the severe adverse events ([1]; phase 2 trial in emphysema) is listed as “No significant severe adverse events”.
For C[S+]([O-])c1ccc(-c2nc(-c3ccc(F)cc3)c(-c3ccncc3)[nH]2)cc1 (centres unmarked) [SB203580, 4-(4-Fluorophenyl)-2-(4-methylsulfinylphenyl)-5-(4-pyridyl)-1H-imidazole], the “increase of number of total BM DTCs compared to non-treated animals” value (BM DTCs [2]; 10 μmol/kg IP BID x 7 days) was greater than 4 fold, the “BM DTC count” value (BM DTCs [2]) was “increases” and the “fraction of BM lpDTCs (TWIST1+; p-p38+; BrdU- DTCs over total BM DTCs)” value (BM DTCs [2]; listed as SB203085) was “decreased”. For the same molecule, the TWIST1-dependent growth arrest [3] was “reversed TWIST1-dependent growth arrest in a dose dependent manner”, the overall survival (BM DTCs [4]) was “increased overall survival” and the “total BM DTCs” value (BM DTCs [4]) was “significantly reduced total BM DTCs”.
With CC(=O)O[C@H]1C(=O)[C@@]2(C)[C@H]([C@H](OC(=O)c3ccccc3)[C@]3(O)C[C@H](OC(=O)[C@H](O)[C@@H](NC(=O)c4ccccc4)c4ccccc4)C(C)=C1C3(C)C)[C@]1(OC(C)=O)CO[C@@H]1C[C@@H]2O [Taxol, paclitaxel] the “decrease of total DTC number” value (BM DTCs [2]; 10 mg/kg IP once) was roughly 2.5 fold, the “BM DTC count” value (BM DTCs [2]) was “decreases” and the “fraction of BM lpDTCs (TWIST1+; p-p38+; BrdU- DTCs over total BM DTCs)” value (BM DTCs [2]) was “enriches; also recorded: significantly increased”. The IC50 (TWIST1-positive cells; non-pretreated, FIG. 4B) was greater than 40 nM and the IC50 (TWIST1-positive cells; pretreatment with SB203580, FIG. 4B) was 6.1 nM.
